Source: patent US6403794B2, “Substituted 2-amino-4-alkylamino-1,3,5-triazines as herbicides” (Bayer Aktiengesellschaft, priority 1996, dated 2002)

Columns and labels:
Sinapis = assay: Pre-emergence test; format: in vivo; settings: greenhouse, 1000 g of ai./ha, after three weeks
Experimental: (§1) Solvent: 5 parts by weight of acetone
(§2) Emulsifier: 1 part by weight of alkylaryl polyglycol ether
(§3) To produce a suitable preparation of active compound, 1 part by weight of active compound is mixed with the stated amount of solvent, the stated amount of emulsifier is added and the concentrate is diluted with water to the desired concentration.
(§4) Seeds of the test plants are sown in normal soil. After about 24 hours, the soil is watered with the preparation of active compound. The amount of water per unit area is advantageously kept constant. The concentration of active compound in the preparation is immaterial, only the application rate of active compound per unit area matters.
(§5) After three weeks, the degree of damage to the plants is scored visually in % damage in comparison to the development of the untreated control.
(§6) 0%=no effect (like untreated control)

weeds [1] = assay: Pre-emergence test; format: in vivo
Experimental: as §1, §2, §3, §4, §5, §6

Amaranthus [2] = assay: Pre-emergence test; format: in vivo; settings: Amaranthus, 504 h, greenhouse, after three weeks, read-out: degree of damage to the plants (% damage), Amaranthus; for pest or weed control at 1000 g/ha: 1000 g of ai./ha; for pest or weed control at 500 g/ha: 500 g of ai./ha
Experimental: as §1, §2, §3, §4, §5, §6

Abutilon [3] = assay: Pre-emergence test; format: in vivo; settings: Abutilon, 504 h, greenhouse, after three weeks, read-out: degree of damage to the plants (% damage), Abutilon; for pest or weed control at 1000 g/ha: 1000 g of ai./ha; for pest or weed control at 500 g/ha: 500 g of ai./ha
Experimental: as §1, §2, §3, §4, §5, §6

Maize = assay: Pre-emergence test; format: in vivo; settings: greenhouse, 1000 g of ai./ha, after three weeks
Experimental: as §1, §2, §3, §4, §5, §6

weeds [4] = assay: Post-emergence test; format: in vivo
Experimental: as §1, §2, §3
(§7) Test plants which have a height of 5-15 cm are sprayed with the preparation of active compound such that the particular amounts of active compounds desired are applied per unit area. The concentration of the spray liquor is chosen so that the particular amounts of active compound desired are applied in 1000 l of water/ha.
(§8) After three weeks, the degree of damage to the plants is scored visually in % damage, in comparison to the untreated control.
as §6

Galium [5] = assay: Post-emergence test; format: in vivo; settings: greenhouse, 1000 g of ai./ha, after three weeks
Experimental: as §1, §2, §3, §7, §8, §6

Xanthium = assay: Post-emergence test; format: in vivo; settings: greenhouse, 1000 g of ai./ha, after three weeks
Experimental: as §1, §2, §3, §7, §8, §6

Amaranthus [6] = assay: Post-emergence test; format: in vivo; settings: greenhouse, after three weeks; for pest or weed control at 500 g/ha: 500 g of ai./ha
Experimental: as §1, §2, §3, §7, §8, §6

Abutilon [7] = assay: Post-emergence test; format: in vivo; settings: greenhouse, 1000 g of ai./ha, after three weeks
Experimental: as §1, §2, §3, §7, §8, §6

Setaria [8] = assay: Post-emergence test; format: in vivo; settings: greenhouse, after three weeks; for pest or weed control at 500 g/ha: 500 g of ai./ha
Experimental: as §1, §2, §3, §7, §8, §6

Alopecurus [9] = assay: Post-emergence test; format: in vivo; settings: greenhouse, 1000 g of ai./ha, after three weeks
Experimental: as §1, §2, §3, §7, §8, §6

Solanum = assay: Post-emergence test; format: in vivo; settings: greenhouse, 500 g of ai./ha, after three weeks
Experimental: as §1, §2, §3, §7, §8, §6

Echinochloa [10] = assay: Post-emergence test; format: in vivo; settings: greenhouse, 500 g of ai./ha, after three weeks
Experimental: as §1, §2, §3, §7, §8, §6

Polygonum [11] = assay: Post-emergence test; format: in vivo; settings: greenhouse, 500 g of ai./ha, after three weeks
Experimental: as §1, §2, §3, §7, §8, §6

Ipomoea = assay: Post-emergence test; format: in vivo; settings: greenhouse, 500 g of ai./ha, after three weeks
Experimental: as §1, §2, §3, §7, §8, §6

Wheat [12] = assay: Post-emergence test; format: in vivo; settings: greenhouse, 500 g of ai./ha, after three weeks
Experimental: as §1, §2, §3, §7, §8, §6

Echinochloa [13] = assay: Pre-emergence test; format: in vivo; settings: greenhouse, 500 g of ai./ha, after three weeks
Experimental: as §1, §2, §3, §4, §5, §6

Veronica = assay: Pre-emergence test; format: in vivo; settings: greenhouse, 500 g of ai./ha, after three weeks
Experimental: as §1, §2, §3, §4, §5, §6

Digitaria = assay: Pre-emergence test; format: in vivo; settings: greenhouse, 500 g of ai./ha, after three weeks
Experimental: as §1, §2, §3, §4, §5, §6

Polygonum [14] = assay: Pre-emergence test; format: in vivo; settings: greenhouse, 500 g of ai./ha, after three weeks
Experimental: as §1, §2, §3, §4, §5, §6

Datura = assay: Pre-emergence test; format: in vivo; settings: greenhouse, 500 g of ai./ha, after three weeks
Experimental: as §1, §2, §3, §4, §5, §6

Wheat [15] = assay: Pre-emergence test; format: in vivo; settings: greenhouse, 500 g of ai./ha, after three weeks
Experimental: as §1, §2, §3, §4, §5, §6

Galium [16] = assay: Pre-emergence test; format: in vivo; settings: greenhouse, 1000 g of ai./ha, after three weeks
Experimental: as §1, §2, §3, §4, §5, §6

Setaria [17] = assay: Pre-emergence test; format: in vivo; settings: greenhouse, 1000 g of ai./ha, after three weeks
Experimental: as §1, §2, §3, §4, §5, §6

Alopecurus [18] = assay: Pre-emergence test; format: in vivo; settings: greenhouse, 1000 g of ai./ha, after three weeks
Experimental: as §1, §2, §3, §4, §5, §6

[19] = Amaranthus, 504 h, read-out: degree of damage to the plants (% damage), Amaranthus
[20] = Setaria, 504 h, read-out: degree of damage to the plants (% damage), Setaria

Compound | activity against weeds (weeds [1]) | pest or weed control at 1000 g/ha (Amaranthus [2]) [%] | pest or weed control at 1000 g/ha (Abutilon [3]) [%] | activity against weeds (weeds [4]) | degree of damage to the plants (% damage), Galium (Galium [5]) [%] | degree of damage to the plants (% damage), Xanthium (Xanthium) [%] | degree of damage to the plants (% damage), Abutilon (Abutilon [7]) [%] | degree of damage to the plants (% damage), Alopecurus (Alopecurus [9]) [%] | degree of damage to the plants (% damage), Solanum (Solanum) [%] | degree of damage to the plants (% damage), Echinochloa (Echinochloa [10]) [%] | pest or weed control at 500 g/ha (Amaranthus [6]; [19]) [%] | degree of damage to the plants (% damage), Polygonum (Polygonum [11]) [%] | degree of damage to the plants (% damage), Ipomoea (Ipomoea) [%] | pest or weed control at 500 g/ha (Setaria [8]; [20]) [%] | degree of damage to the plants (% damage), Wheat (Wheat [12]) [%] | degree of damage to the plants (% damage), Echinochloa (Echinochloa [13]) [%] | degree of damage to the plants (% damage), Veronica (Veronica) [%] | degree of damage to the plants (% damage), Digitaria (Digitaria) [%] | pest or weed control at 500 g/ha (Amaranthus [2]) [%] | degree of damage to the plants (% damage), Polygonum (Polygonum [14]) [%] | other results
CCC(COc1ccccc1)Nc1nc(N)nc(C(F)(F)F)n1 (stereo not shown) [Example 2] | strong activity | 100 | 80 | strong activity | 100 | 100 | 100 | 70 |  |  |  |  |  |  |  |  |  |  |  |  | degree of damage to the plants (% damage), Sinapis (Sinapis): 100%; degree of damage to the plants (% damage), Maize (Maize): 20%; pest or weed control at 1000 g/ha (Amaranthus [6]; Amaranthus, 504 h, 1000 g of ai./ha, read-out: degree of damage to the plants (% damage), Amaranthus): 100%; pest or weed control at 1000 g/ha (Setaria [8]; Setaria, 504 h, 1000 g of ai./ha, read-out: degree of damage to the plants (% damage), Setaria): 100%; melting point: 100 °C
CCC(COc1ccccc1)Nc1nc(N)nc(C(F)(F)F)n1 (stereo not shown) [Example 4] |  |  |  | strong activity | 80 | 100 | 100 | 70 |  |  |  |  |  |  |  |  |  |  |  |  | degree of damage to the plants (% damage), Amaranthus (Amaranthus [6]; 1000 g of ai./ha): 100%; degree of damage to the plants (% damage), Setaria (Setaria [8]; 1000 g of ai./ha): 100%
CCC(CCc1cccs1)Nc1nc(N)nc(C(F)(F)F)n1 (stereo not shown) [Example 11] |  |  |  | strong activity |  |  |  |  | 100 | 80 | 100 | 100 | 100 | 95 | 10 |  |  |  |  |  | 
CCC(CCc1ccsc1)Nc1nc(N)nc(C(F)(F)F)n1 (stereo not shown) [Example 12] | strong activity |  |  | strong activity |  |  |  |  | 100 | 90 | 100 | 100 | 100 | 95 | 10 | 100 | 100 | 80 | 100 | 100 | pest or weed control at 500 g/ha (Abutilon [3]): 100%; degree of damage to the plants (% damage), Datura (Datura): 100%; degree of damage to the plants (% damage), Wheat (Wheat [15]): 0%
CCC(CCc1ccsc1)Nc1nc(N)nc(C(C)F)n1 (stereo not shown) [Example 19] | strong activity |  |  | strong activity |  |  |  |  | 100 | 100 | 100 | 100 | 100 | 100 |  | 100 | 100 | 100 | 100 | 100 | pest or weed control at 500 g/ha (Abutilon [3]): 100%; degree of damage to the plants (% damage), Datura (Datura): 100%; degree of damage to the plants (% damage), Wheat (Wheat [15]): 0%
CCC(CCc1ccccn1)Nc1nc(N)nc(C(C)F)n1 (stereo not shown) [Example 21] | strong activity | 95 | 90 |  |  |  |  |  |  |  |  |  |  |  |  |  |  |  |  |  | degree of damage to the plants (% damage), Galium (Galium [16]): 80%; degree of damage to the plants (% damage), Setaria (Setaria [17]): 90%; degree of damage to the plants (% damage), Alopecurus (Alopecurus [18]): 100%
